Test results reported in ChEMBL document CHEMBL1201862, “PubChem BioAssay data set” (2004).
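Exposure lasted 48 hours, with cells grown in 96-well plates and compounds tested at five concentrations. GI50 = concentration required for 50% inhibition of growth.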 Activity calls are given as the source filed them. Cut-off read from the data, not from the text of the source: active = GI50 up to about 1.1 µM and inactive = higher. Where a SMILES comes first, the peptide text is derived from it. The star is where a group is joined. Boc = CC(C)(C)OC(=O)*

Experiments:
Assay in all cases: DTP human tumour cell line panel, 48 h
SNB-19 = test system: SNB-19
OVCAR-4 = test system: OVCAR-4
LOX IMVI = test system: LOX IMVI
HT-29 = test system: HT-29
HCT-15 = test system: HCT-15
CAKI-1 = test system: CAKI-1
Malme-3M = test system: Malme-3M
UACC-257 = test system: UACC-257
EKVX = test system: EKVX
UO-31 = test system: UO-31
HL-60 = test system: HL-60
OVCAR-3 = test system: OVCAR-3
786-0 = test system: 786-0
SN12C = test system: SN12C
NCI-H226 = test system: NCI-H226
SF-539 = test system: SF-539
OVCAR-5 = test system: OVCAR-5
K562 = test system: K562
NCI-H522 = test system: NCI-H522
SK-OV-3 = test system: SK-OV-3

Measured: GI50

COc1cc(C2C(C(=O)NCc3ccccc3)=C(C)NC(C)=C2C(=O)NCc2ccccc2)ccc1O
27.6 µM: HCT-15
inactive: SNB-19 29.9 µM | OVCAR-4 40.1 µM | LOX IMVI 32.6 µM | HT-29 21.5 µM | CAKI-1 24.9 µM | Malme-3M > 100 µM | UACC-257 44.1 µM | EKVX 16.6 µM | UO-31 65.3 µM | HL-60 25.4 µM | OVCAR-3 29.8 µM | 786-0 46.2 µM | SN12C 31.5 µM | NCI-H226 37.9 µM | SF-539 20.9 µM | OVCAR-5 57.5 µM | K562 30.8 µM

CC(=O)OC1/C=C(\C)C(OC(C)=O)C/C=C(/C)CCC2C(/C=C/C1=O)C2(C)C (stereo not drawn)
inactive: SNB-19 > 100 µM | OVCAR-4 > 100 µM | NCI-H522 47.8 µM | LOX IMVI > 100 µM | HT-29 > 100 µM | Malme-3M > 100 µM | UACC-257 > 100 µM | EKVX > 100 µM | UO-31 67.5 µM | SK-OV-3 > 100 µM | OVCAR-3 > 100 µM | SN12C > 100 µM | NCI-H226 > 100 µM | SF-539 > 100 µM | OVCAR-5 > 100 µM
> 100 µM: HCT-15

COc1ccc(/N=C\c2cc(OC)c(OC)c(OC)c2)cc1
inactive: SNB-19 > 100 µM | OVCAR-4 > 100 µM | LOX IMVI 17.5 µM | HT-29 > 100 µM | Malme-3M > 100 µM | UACC-257 > 100 µM | EKVX > 100 µM | UO-31 64.9 µM | SK-OV-3 > 100 µM | 786-0 > 100 µM | SN12C > 100 µM | SF-539 87.1 µM | OVCAR-5 > 100 µM | K562 33.7 µM
29.2 µM: HCT-15

COC(=O)[C@H](Cc1ccc(O)cc1)NC(=O)[C@H](Cc1ccc(O)cc1)NC(=O)OC(C)(C)C (Boc-Tyr-Tyr-OMe)
> 100 µM: HCT-15
inactive: SNB-19 > 100 µM | NCI-H522 28 µM | LOX IMVI > 100 µM | HT-29 > 100 µM | CAKI-1 > 100 µM | Malme-3M > 100 µM | UACC-257 > 100 µM | EKVX > 100 µM | UO-31 > 100 µM | SK-OV-3 > 100 µM | OVCAR-3 72.3 µM | 786-0 > 100 µM | NCI-H226 > 100 µM | SF-539 82.2 µM | OVCAR-5 > 100 µM

O=CNCNCCO
inactive: SNB-19 > 100 µM | OVCAR-4 > 100 µM | HT-29 55.1 µM | CAKI-1 > 100 µM | Malme-3M > 100 µM | EKVX > 100 µM | UO-31 > 100 µM | HL-60 20.7 µM | SK-OV-3 > 100 µM | OVCAR-3 > 100 µM | 786-0 > 100 µM | NCI-H226 > 100 µM | OVCAR-5 > 100 µM | K562 > 100 µM
> 100 µM: HCT-15

COc1ccc(OCC(C)(C)O)cc1
inactive: SNB-19 > 100 µM | OVCAR-4 > 62.8 µM | LOX IMVI > 100 µM | HT-29 > 100 µM | CAKI-1 > 100 µM | Malme-3M > 100 µM | UACC-257 > 100 µM | EKVX > 100 µM | UO-31 > 100 µM | HL-60 > 100 µM | SK-OV-3 > 100 µM | OVCAR-3 > 100 µM | SN12C > 100 µM | NCI-H226 > 100 µM | SF-539 > 100 µM | OVCAR-5 > 100 µM | K562 > 100 µM
> 100 µM: HCT-15

C#CCN1C(=O)CN2C(Cl)(Cl)C2(c2ccccc2)c2cc(Cl)ccc21 (stereo not drawn)
40.6 µM: HCT-15
inactive: OVCAR-4 72.1 µM | NCI-H522 35.3 µM | LOX IMVI 88.1 µM | HT-29 40.9 µM | CAKI-1 30.1 µM | Malme-3M > 100 µM | UACC-257 36.3 µM | EKVX 50.4 µM | UO-31 68.1 µM | OVCAR-3 87.5 µM | SN12C 37.2 µM | NCI-H226 39.7 µM | OVCAR-5 > 100 µM | K562 49.8 µM

COc1cc(CO)c(CC(=O)NCCCc2ccccc2)cc1OC
inactive: SNB-19 > 100 µM | OVCAR-4 > 100 µM | LOX IMVI > 100 µM | HT-29 > 100 µM | CAKI-1 > 100 µM | Malme-3M > 100 µM | UACC-257 > 100 µM | EKVX > 100 µM | UO-31 > 100 µM | HL-60 38 µM | OVCAR-3 > 100 µM | 786-0 > 100 µM | SN12C > 100 µM | NCI-H226 > 100 µM | OVCAR-5 > 100 µM | K562 > 100 µM
> 100 µM: HCT-15

O=C(O)C1(Cc2ccc3c(c2)CCC3)Cc2cc3c(cc2C1)CCC3
> 100 µM: HCT-15
inactive: SNB-19 > 100 µM | OVCAR-4 > 100 µM | LOX IMVI > 100 µM | HT-29 > 100 µM | Malme-3M > 100 µM | EKVX > 100 µM | UO-31 > 100 µM | HL-60 > 100 µM | SK-OV-3 > 100 µM | OVCAR-3 > 100 µM | 786-0 > 100 µM | NCI-H226 > 100 µM | SF-539 > 100 µM | OVCAR-5 > 100 µM | K562 > 100 µM

C[C@]12CC[C@H](OC3CCCCO3)CC1=CC[C@@H]1C2CC[C@]2(C)/C(=N/OCCC#N)CCC12 (stereo partly drawn)
> 100 µM: HCT-15
inactive: SNB-19 30.7 µM | OVCAR-4 18.9 µM | NCI-H522 18.5 µM | LOX IMVI 6.38 µM | HT-29 2.17 µM | CAKI-1 45.8 µM | Malme-3M > 100 µM | UACC-257 6.62 µM | EKVX 19.2 µM | UO-31 47.8 µM | SK-OV-3 37.5 µM | OVCAR-3 68.7 µM | 786-0 23.1 µM | SN12C 64.7 µM | SF-539 83.4 µM | K562 6.95 µM

CCCc1cc(=O)oc2c3c(c4c(c12)OC(C)(C)CC4)O[C@@H](C)[C@H](C)[C@H]3O
inactive: SNB-19 14 µM | OVCAR-4 10.1 µM | LOX IMVI 15.4 µM | HT-29 8.3 µM | CAKI-1 35.1 µM | Malme-3M 14.4 µM | UACC-257 4.94 µM | EKVX 12.2 µM | UO-31 6.12 µM | SK-OV-3 17.6 µM | OVCAR-3 15.7 µM | 786-0 5.37 µM | SN12C 4.22 µM | NCI-H226 15.2 µM | SF-539 17.6 µM | OVCAR-5 12.7 µM | K562 2.79 µM
11.2 µM: HCT-15

C=Cc1cnc([N+](=O)[O-])n1C
inactive: SNB-19 > 100 µM | LOX IMVI 87.5 µM | HT-29 > 100 µM | CAKI-1 42.5 µM | Malme-3M 38.1 µM | UACC-257 > 100 µM | EKVX > 100 µM | UO-31 27.4 µM | HL-60 48.6 µM | SK-OV-3 71 µM | OVCAR-3 69.7 µM | 786-0 > 100 µM | SN12C > 100 µM | NCI-H226 > 100 µM | SF-539 74.1 µM | OVCAR-5 > 100 µM
50.2 µM: HCT-15

S=C(Cc1ccc2c(c1)Sc1ccccc1O2)N1CCOCC1
41.9 µM: HCT-15
inactive: SNB-19 > 100 µM | OVCAR-4 > 100 µM | LOX IMVI 45.4 µM | HT-29 24.6 µM | CAKI-1 38.9 µM | Malme-3M 23.8 µM | UACC-257 31.4 µM | EKVX 30.3 µM | UO-31 26.1 µM | HL-60 16 µM | SK-OV-3 49.9 µM | OVCAR-3 49.5 µM | 786-0 56.9 µM | SN12C > 100 µM | NCI-H226 28.8 µM | SF-539 21.2 µM | OVCAR-5 > 100 µM | K562 > 100 µM

O=C1NC2(CCCCC2)C2CCCCC(O)C12 (stereo not drawn)
> 100 µM: HCT-15
inactive: SNB-19 > 100 µM | HT-29 > 100 µM | CAKI-1 > 100 µM | Malme-3M > 100 µM | UACC-257 > 100 µM | EKVX > 100 µM | UO-31 > 100 µM | HL-60 > 100 µM | OVCAR-3 > 100 µM | 786-0 > 100 µM | SN12C > 100 µM | NCI-H226 > 100 µM | SF-539 > 100 µM | OVCAR-5 > 100 µM | K562 > 100 µM

CCOC(=O)c1csc(NC(=O)CCN2CCCCC2)n1
> 100 µM: HCT-15
inactive: SNB-19 > 100 µM | OVCAR-4 > 100 µM | LOX IMVI > 100 µM | HT-29 > 100 µM | CAKI-1 > 100 µM | Malme-3M > 100 µM | UACC-257 > 100 µM | EKVX > 100 µM | UO-31 > 100 µM | HL-60 > 100 µM | SK-OV-3 > 100 µM | OVCAR-3 > 100 µM | SF-539 > 100 µM | OVCAR-5 > 100 µM | K562 > 100 µM

O=C1CCC2COc3ccc(O)c1c32 (stereo not drawn)
inactive: SNB-19 24.1 µM | OVCAR-4 > 100 µM | LOX IMVI > 100 µM | HT-29 > 100 µM | CAKI-1 > 100 µM | UACC-257 > 100 µM | EKVX 51.2 µM | HL-60 > 100 µM | SK-OV-3 > 100 µM | OVCAR-3 > 100 µM | SN12C > 100 µM | SF-539 > 100 µM | K562 > 100 µM
> 100 µM: HCT-15

COc1ccc(C(C2C(=O)N(C)C(=O)N(C)C2=O)C(F)(F)C(=O)N(C)C)cc1 (stereo not drawn)
inactive: SNB-19 > 100 µM | OVCAR-4 > 100 µM | LOX IMVI > 100 µM | CAKI-1 > 100 µM | Malme-3M > 100 µM | UACC-257 > 100 µM | EKVX > 100 µM | UO-31 > 100 µM | SK-OV-3 > 100 µM | OVCAR-3 > 100 µM | 786-0 > 100 µM | NCI-H226 > 100 µM | SF-539 > 100 µM | OVCAR-5 > 100 µM
> 100 µM: HCT-15
